Laboratory results taken from patent publication US9943529B2, “Methods for reducing cellular proliferation and treating certain diseases” (BRIGHAM YOUNG UNIVERSITY, priority 2013, dated 2018).

Tests used:
UACC-62 = conditions: 48 hours, five 10-fold dilutions starting from 100 μM
MDA-MB-231/ATCC = conditions: 48 hours, five 10-fold dilutions starting from 100 μM
U251 = conditions: 48 hours, five 10-fold dilutions starting from 100 μM
HT29 = test: cells; conditions: Homo sapiens, HT-29, 48 h
HCT-116 = test: cells; conditions: Homo sapiens, HCT-116, 48 h
A549/ATCC [1] = conditions: 48 hours, five 10-fold dilutions starting from 100 μM
NCI-ADR-RES = conditions: 48 hours, five 10-fold dilutions starting from 100 μM
NCI-H23 = test: cells; conditions: Homo sapiens, NCI-H23, 48 h
SK-MEL-28 [2] = test: cells; conditions: Homo sapiens, SK-MEL-28, 48 h
A549/ATCC [3] = test: cells; conditions: Homo sapiens, A549, 48 h
NCI-H322M = conditions: 48 hours, five 10-fold dilutions starting from 100 μM
SK-MEL-28 [4] = conditions: 48 hours, five 10-fold dilutions starting from 100 μM

CCCCCCCCNCCC[C@@H](C)[C@H]1CC[C@H]2[C@@H]3[C@H](OCCCN)C[C@@H]4C[C@H](OCCCN)CC[C@]4(C)[C@H]3C[C@H](OCCCN)[C@]12C [CSA-13]
TGI (UACC-62): 2.29 µM
TGI (MDA-MB-231/ATCC): 4.08 µM
TGI (U251): 3.05 µM
GI50 (HT29): 1.11 µM
CC50 (HT29; read-out: LC50): 34 µM
GI50 (HCT-116): 0.87 µM
CC50 (HCT-116; read-out: LC50): 7.25 µM
TGI (A549/ATCC [1]): 9.33 µM
TGI (NCI-ADR-RES): 5.33 µM
GI50 (NCI-H23): 1.24 µM
CC50 (NCI-H23; read-out: LC50): 7.87 µM
GI50 (SK-MEL-28 [2]): 0.291 µM
CC50 (SK-MEL-28 [2]; read-out: LC50): 5.46 µM
GI50 (A549/ATCC [3]): 2.01 µM
CC50 (A549/ATCC [3]; read-out: LC50): 45.9 µM
TGI (NCI-H322M): 9.31 µM
TGI (SK-MEL-28 [4]): 1.27 µM
